The source of these data is ChEMBL document CHEMBL3112510, “Optimization, pharmacophore modeling and 3D-QSAR studies of sipholanes as breast cancer migration and proliferation inhibitors” (Eur J Med Chem, 2014).

Assay [1] has as its system MDA-MB-231. As to the kind of experiment: Antiproliferative activity against human MDA-MB-231 cells after 72 hrs by MTT assay. Conditions: MDA-MB-231, 72 h. (In general: Tetrazolium assays rely on reduction of a dye to a coloured formazan, in cell work by metabolically active cells.)
The test system of the next assay is MCF7. As to the kind of experiment: cells. Conditions: Homo sapiens, MCF7, 72 h.
Assay [2] concerns MDA-MB-231. As to the kind of experiment: Antimigratory activity in human MDA-MB-231 cells after 24 hrs by wound healing assay. Conditions: MDA-MB-231, 24 h.

Consider `CC1=CC[C@H]2[C@H](CC[C@]2(C)O)C(C)(C)[C@@H]1CC[C@H]1[C@]2(C)CC[C@H](OC(=O)c3ccc(Cl)cc3)C(C)(C)O[C@H]2CC[C@@]1(C)O`, for which the IC50 with MDA-MB-231 [1] was 10.3 µM; in the assay on MCF7, 24.1 µM; with MDA-MB-231 [2], 5.3 µM; in the assay with MDA-MB-231 [2] (read-out: pIC50 (converted)), 5.3 µM.

As for `CC1=CC[C@H]2[C@@H]1CC=C(C)[C@@H](CC[C@H]1[C@]3(C)CC[C@H](OC(=O)c4ccncc4)C(C)(C)O[C@H]3CC[C@@]1(C)O)C2(C)C`, the IC50 with MDA-MB-231 [1] is 19.1 µM; in the assay with MCF7, over 50 µM; in the assay on MDA-MB-231 [2], 9.5 µM; in the assay with MDA-MB-231 [2] (read-out: pIC50 (converted)) it was 9.51 µM.

With `C[C@H]1C(=O)C[C@H]2[C@H](CC[C@]2(C)O)C(C)(C)[C@@H]1CC[C@H]1[C@]2(C)CC[C@H](O)C(C)(C)O[C@H]2CC[C@@]1(C)O`, the IC50 with MDA-MB-231 [1] was over 50 µM; with MCF7 it was over 50 µM; in the assay on MDA-MB-231 [2], 47.5 µM; in the assay on MDA-MB-231 [2] (read-out: pIC50 (converted)), 47.5 µM.

For the compound `CC1=C(CC[C@H]2[C@]3(C)CC[C@H](O)C(C)(C)O[C@H]3CC[C@@]2(C)O)[C@](C)(C/C=C/C(C)(C)OO)[C@H](O)CC1`, the IC50 in the assay on MDA-MB-231 [1] was over 50 µM; in the assay with MCF7, 27.4 µM; with MDA-MB-231 [2] it was over 50 µM; with MDA-MB-231 [2] (read-out: pIC50 (converted)), 54 µM.

For the compound `C[C@@H]1C(=O)C[C@H]2[C@@H](/C1=C/C[C@H]1[C@]3(C)CC[C@H](O)C(C)(C)O[C@H]3CC[C@@]1(C)O)C(C)(C)CC[C@]2(C)O`, the IC50 is over 50 µM with MDA-MB-231 [1], over 50 µM in the assay with MCF7, over 50 µM with MDA-MB-231 [2] and 69 µM in the assay with MDA-MB-231 [2] (read-out: pIC50 (converted)).

Regarding `CC1=CC[C@H]2[C@H](CC[C@]2(C)O)C(C)(C)[C@@H]1CC[C@H]1[C@]2(C)CC[C@H](OC(=O)c3ccncc3)C(C)(C)O[C@H]2CC[C@@]1(C)O`, the IC50 is 18 µM in the assay with MDA-MB-231 [1], 25.3 µM in the assay with MCF7, 10.6 µM with MDA-MB-231 [2] and 10.6 µM in the assay with MDA-MB-231 [2] (read-out: pIC50 (converted)).

On to `CC1(C)O[C@H]2CC[C@@](C)(O)[C@@H](CC[C@@H]3C(C=O)=CC[C@H]4[C@H](CC[C@]4(C)O)C3(C)C)[C@]2(C)CCC1=O`, for which the IC50 in the assay on MDA-MB-231 [1] was over 50 µM; in the assay with MCF7, over 50 µM; in the assay with MDA-MB-231 [2], 42.6 µM; in the assay on MDA-MB-231 [2] (read-out: pIC50 (converted)) it was 42.6 µM.

For `CC(=O)O[C@H]1CC[C@]2(C)[C@H](CC[C@@](C)(O)[C@H]2CC[C@@H]2C(C)=CC[C@@H]3C(C)=CC[C@@H]3C2(C)C)OC1(C)C`, the IC50 in the assay on MDA-MB-231 [1] was 39.2 µM; in the assay on MCF7, 43.5 µM; with MDA-MB-231 [2], 16 µM; in the assay with MDA-MB-231 [2] (read-out: pIC50 (converted)), 16 µM.

Turning to `CC1(C)O[C@H]2CC[C@@](C)(O)[C@@H](CC[C@@H]3C(CO)=CC[C@H]4[C@H](CC[C@]4(C)O)C3(C)C)[C@]2(C)CC[C@@H]1O`, the IC50 is over 50 µM in the assay on MDA-MB-231 [1], over 50 µM with MCF7, over 50 µM in the assay with MDA-MB-231 [2] and 87.5 µM in the assay on MDA-MB-231 [2] (read-out: pIC50 (converted)).

Consider `CC1=CC[C@H]2[C@H](CC[C@]2(C)O)C(C)(C)[C@@H]1CC[C@H]1[C@]2(C)CC/C(=N/O)C(C)(C)O[C@H]2CC[C@@]1(C)O`, for which the IC50 in the assay with MDA-MB-231 [1] is 42.7 µM; in the assay on MCF7, 46.8 µM; in the assay on MDA-MB-231 [2], over 50 µM; in the assay on MDA-MB-231 [2] (read-out: pIC50 (converted)), 52.7 µM.

As for `CC1=CC[C@H]2[C@H](CC[C@]2(C)O)C(C)(C)[C@@H]1CC[C@H]1[C@]2(C)CC/C(=N/OCc3ccccc3)C(C)(C)O[C@H]2CC[C@@]1(C)O`, the IC50 in the assay with MDA-MB-231 [1] was 38.2 µM; with MCF7, over 50 µM; in the assay on MDA-MB-231 [2], 31.4 µM; with MDA-MB-231 [2] (read-out: pIC50 (converted)), 31.4 µM.

As to `CC1=CC[C@H]2[C@@H]1CC=C(C)[C@@H](CC[C@H]1[C@]3(C)CC[C@H](OC(=O)CCC(=O)O)C(C)(C)O[C@H]3CC[C@@]1(C)O)C2(C)C`, the IC50 in the assay on MDA-MB-231 [1] is 29.6 µM; with MCF7 it was over 50 µM; in the assay with MDA-MB-231 [2], 21 µM.

In the case of `CC1=CCC2C(CC[C@@]2(C)O)C(C)(C)C1CC[C@@H]1[C@@]2(C)CCC(=O)C(C)(C)O[C@@H]2CC[C@]1(C)O` (some centres undefined) [SIPHOLENONE A], the IC50 in the assay on MDA-MB-231 [1] is over 50 µM; with MCF7, over 50 µM; in the assay with MDA-MB-231 [2], 28.1 µM; in the assay with MDA-MB-231 [2] (read-out: pIC50 (converted)), 28.1 µM.

Take `CC1=C(CC[C@H]2[C@]3(C)CC[C@H](O)C(C)(C)O[C@H]3CC[C@@]2(C)O)[C@@H]2[C@H](C[C@H]1C(=O)O)[C@@](C)(O)CCC2(C)C`: the IC50 was over 50 µM in the assay on MDA-MB-231 [1], 39.8 µM in the assay with MCF7, 45 µM in the assay on MDA-MB-231 [2] and 45 µM in the assay with MDA-MB-231 [2] (read-out: pIC50 (converted)).

As to `CC1=CC[C@H]2[C@H](CC[C@]2(C)O)C(C)(C)[C@@H]1CC[C@H]1[C@]2(C)CC[C@H](OC(=O)CCC(=O)O)C(C)(C)O[C@H]2CC[C@@]1(C)O`, the IC50 in the assay on MDA-MB-231 [1] was 27.9 µM; in the assay on MCF7 it was over 50 µM; in the assay with MDA-MB-231 [2] it was 18 µM; in the assay on MDA-MB-231 [2] (read-out: pIC50 (converted)), 18 µM.
